The text below walks through data of paper PMC4037836 (British Journal of Cancer, 2014).

The conditions of data set [1]: pazopanib and lapatinib combination, daily; ref de Jonge et al, 2013; cited from earlier work.
The nature of data set [2]: Plasma pharmacokinetics of paclitaxel, pazopanib and lapatinib in cycle 1. The data set is classed as in vivo, human. As to conditions: for AUC(0-t) / Cmax / half-life / AUC(0-inf): human, plasma; for AUC(0-t): Lapatinib AUC(0–24).
Data set [3] has as its system CYP2C8. It counts as in vivo, human. The note with it: increase in paclitaxel AUC and Cmax less than two-fold in the presence of pazopanib and lapatinib.
For data set [4], the system named is CYP3A4. It counts as in vivo, human. As to conditions: increase in paclitaxel AUC and Cmax less than two-fold in the presence of pazopanib and lapatinib.
For data set [5] the following is noted: pazopanib in combination with paclitaxel; ref Tan et al, 2010; cited from earlier work.
Setting [6] is: day 15 of cycle 1, paclitaxel 80 mg m^−2, pazopanib 400 mg, lapatinib 1000 mg, n=9, geometric mean (95% confidence interval).
The mark [7] stands for this setting: patients receiving pazopanib 400 mg, lapatinib 1000 mg.
[8] abbreviates: day 15 of cycle 1, paclitaxel 50 mg m^−2, pazopanib 400 mg, lapatinib 1000 mg, n=6, geometric mean (95% confidence interval).
Setting [9] is: day 15 of cycle 1, paclitaxel 50 mg m^−2, pazopanib 800 mg, lapatinib 1000 mg, n=3, median (range).
Setting [10] is: day 15 of cycle 1, paclitaxel 80 mg m^−2, pazopanib 800 mg, lapatinib 1000 mg, n=1, individual value.

One may read the AUC(0-t) as the area under the concentration-time curve up to a stated or last time point. Higher therefore signals high exposure. The term Cmax denotes the peak of the concentration-time curve. As a reminder, the half-life is the time needed for the level to fall by half in the phase considered. The low end stands for fast loss, the high end for slow loss. Usually AUC(0-inf) stands for total exposure, with the tail of the curve extrapolated. A high value points to high exposure.

On to `CS(=O)(=O)CCNCc1ccc(-c2ccc3ncnc(Nc4ccc(OCc5cccc(F)c5)c(Cl)c4)c3c2)o1` [lapatinib], for which the “Recommended phase II dosing” value in data set [1] is reported as 1500 mg. Further, the “Lapatinib Cmax” value in data set [2] (setting [6]) is recorded as 1.95 (1.13, 3.37) μg ml^−1. In addition, the exposure AUC(0-t) in data set [2] (oral, day 15 of cycle 1, paclitaxel 50 mg m^−2, pazopanib 400 mg, lapatinib 1000 mg, n=6, geometric mean (95% confidence interval)) is 20 µg·h/mL; in data set [2] (oral, day 15 of cycle 1, paclitaxel 50 mg m^−2, pazopanib 800 mg, lapatinib 1000 mg, n=3, median (range)) it was 51.4 µg·h/mL; in data set [2] (oral, day 15 of cycle 1, paclitaxel 80 mg m^−2, pazopanib 400 mg, lapatinib 1000 mg, n=9, geometric mean (95% confidence interval)), 27.1 µg·h/mL; in data set [2] (oral, day 15 of cycle 1, paclitaxel 80 mg m^−2, pazopanib 800 mg, lapatinib 1000 mg, n=1, individual value) it was 11.6 µg·h/mL. The compound further gave a Cmax in data set [2] (oral, Lapatinib Cmax, day 15 of cycle 1, paclitaxel 50 mg m^−2, pazopanib 400 mg, lapatinib 1000 mg, n=6, geometric mean (95% confidence interval)) of 1270 ng/mL. Further, the “Increase in AUC0–24 of lapatinib on increasing paclitaxel from 50 to 80 mg m^−2” value in data set [2] (setting [7]) was found to be 1.4 fold. In addition, in data set [2] (setting [7]), the “Increase in Cmax of lapatinib on increasing paclitaxel from 50 to 80 mg m^−2” value turned out to be 1.5 fold. For the same compound, in data set [3], the “Inhibition of CYP2C8 (classification)” value is reported as “weak inhibitors”. The “Inhibition of CYP3A4 (classification)” value in data set [4] is listed as “weak inhibitors”.
As to “5-((4-((2,3-dimethyl-2H-indazol-6-yl)methylamino]-2-pyrimidinyl)amino)-2-methyl-benzenesulfonamide [pazopanib]”, the “Recommended phase II dosing” value in data set [1] is reported as 800 mg. The “Pazopanib AUC(0–24)” value in data set [2] (setting [8]) is 633 (279, 1436) μg*hr ml^−1; in data set [2] (setting [9]), 960 (736, 1620) μg*hr ml^−1; in data set [2] (setting [6]), 646 (432, 967) μg*hr ml^−1; in data set [2] (setting [10]), 1027 µg·h/mL. Also, the “Pazopanib Cmax” value is 31.7 (14.6, 68.8) μg ml^−1 in data set [2] (setting [8]); 48.9 (40.7, 80.9) μg ml^−1 in data set [2] (setting [9]); 32 (21.9, 46.9) μg ml^−1 in data set [2] (setting [6]); 57.4 µg/mL in data set [2] (setting [10]). The “Change in mean AUC0–24 of pazopanib with a two-fold increase in pazopanib dose” value in data set [2] (pazopanib 400–800 mg per day) is “less than two-fold increase”. The “Change in mean Cmax of pazopanib with a two-fold increase in pazopanib dose” value in data set [2] (pazopanib 400–800 mg per day) is “less than two-fold increase”. Moreover, in data set [3], the “Inhibition of CYP2C8 (classification)” value is reported as “weak inhibitors”.
Take `CC(=O)O[C@H]1C(=O)[C@@]2(C)[C@H]([C@H](OC(=O)c3ccccc3)[C@]3(O)C[C@H](OC(=O)[C@H](O)[C@@H](NC(=O)c4ccccc4)c4ccccc4)C(C)=C1C3(C)C)[C@]1(OC(C)=O)CO[C@@H]1C[C@@H]2O` [paclitaxel]: the “Paclitaxel CL” value in data set [2] (day 15, 50 mg m^−2 paclitaxel+400 mg pazopanib+1000 mg lapatinib, n=4, geometric mean (95% confidence interval)) is on record as 16.3 (14.8, 17.9) l h^−1 m^−2; in data set [2] (day 15, 50 mg m^−2 paclitaxel+800 mg pazopanib+1000 mg lapatinib, n=3, median (range)), 16.3 (14.9, 20.3) l h^−1 m^−2; in data set [2] (day 15, 80 mg m^−2 paclitaxel+400 mg pazopanib+1000 mg lapatinib (MTR), n=9, geometric mean (95% confidence interval)) it was 15.3 (13.2, 17.8) l h^−1 m^−2; in data set [2] (day 15, 80 mg m^−2 paclitaxel+800 mg pazopanib+1000 mg lapatinib, n=1, individual value) it was 18.3 l h^−1 m^−2. Moreover, the half-life in data set [2] (intravenous) was 14.8 h; in data set [2] (intravenous, 50 mg m^−2) it was 11.7 h. Moreover, the area under the curve AUC(0-inf) in data set [2] (intravenous, 50 mg m^−2) is 2.15 µg·h/mL; in data set [2] (intravenous, 80 mg m^−2), 3.82 µg·h/mL; in data set [2] (intravenous, Paclitaxel AUC(0-∞), day 15, 50 mg m^−2 paclitaxel+800 mg pazopanib+1000 mg lapatinib, n=3, median (range)) it was 3.06 µg·h/mL; in data set [2] (intravenous, Paclitaxel AUC(0-∞), day 15, 80 mg m^−2 paclitaxel+400 mg pazopanib+1000 mg lapatinib (MTR), n=9, geometric mean (95% confidence interval)) it was 5.23 µg·h/mL; in data set [2] (intravenous, Paclitaxel AUC(0–∞), day 15, 50 mg m^−2 paclitaxel+400 mg pazopanib+1000 mg lapatinib, n=4, geometric mean (95% confidence interval)), 3.07 µg·h/mL; in data set [2] (intravenous, Paclitaxel AUC(0–∞), day 15, 80 mg m^−2 paclitaxel+800 mg pazopanib+1000 mg lapatinib, n=1, individual value) it was 4.37 µg·h/mL. The maximum concentration (Cmax) in data set [2] (intravenous, 50 mg m^−2) worked out at 1440 ng/mL; in data set [2] (intravenous, 50 mg m^−2, Paclitaxel Cmax, day 1 (pazopanib and lapatinib withheld), 50 mg m^−2 paclitaxel+800 mg pazopanib+1000 mg lapatinib, n=3, median (range)), 1270 ng/mL; in data set [2] (intravenous, 80 mg m^−2), 2290 ng/mL; in data set [2] (intravenous, 80 mg m^−2, Paclitaxel Cmax, day 1 (pazopanib and lapatinib withheld), 80 mg m^−2 paclitaxel+800 mg pazopanib+1000 mg lapatinib, n=3, median (range)), 3320 ng/mL; in data set [2] (intravenous, Paclitaxel Cmax, day 15, 50 mg m^−2 paclitaxel+400 mg pazopanib+1000 mg lapatinib, n=5, geometric mean (95% confidence interval)), 2330 ng/mL; in data set [2] (intravenous, Paclitaxel Cmax, day 15, 50 mg m^−2 paclitaxel+800 mg pazopanib+1000 mg lapatinib, n=3, median (range)), 1720 ng/mL. This compound also returned a Cmax in data set [2] (intravenous, Paclitaxel Cmax, day 15, 80 mg m^−2 paclitaxel+800 mg pazopanib+1000 mg lapatinib, n=1, individual value) of 2710 ng/mL. Further, the “Increase in Cmax of paclitaxel relative to paclitaxel alone” value in data set [5] is given as 36%. For the same compound, the “Increase in geometric mean AUC of paclitaxel relative to paclitaxel alone” value in data set [5] was 26%.
